As usually defined, the IC50 is the concentration needed to halve the response being measured. A high value points to weaker potency in that assay. As a reminder, the pIC50 is −log10 of the IC50, conventionally taken in molar units. The low end stands for a large IC50, the high end for a small IC50.

The values below come from US10647700B2, “EZH2 inhibitor and use thereof” (TARAPEUTICS SCIENCE INC., priority 2017, dated 2020).

pIC50: −log10 of the molar value.

The test system of test [1] is H3K27m3 methylation in Pfeiffer cells. In words: Western Blot of H3K27m3 methylation in Pfeiffer cells. Format: cell-based. To be noted: for IC50: 72 hours treatment, H3K27m3 methylation by Western Blot; for effect compared with control compounds in Western Blot verification on cells: versus EPZ6438 and GSK126. As to the method:
Meanwhile, the inventors further conducted Western Blot with Pfeiffer cells (purchased from ATCC, USA) for verification. […] Effect of compounds on H3K27m3 methylation in cells was assessed.

Test [2] has as its target PRC2 protein complex comprising EZH2(Y641F) (Homo sapiens (Human), UniProt Q15910, Y641F). In words: EZH2(Y641F) TR-FRET enzymatic activity assay. To be noted: for activity compared with control compounds in the assay using a TR-FRET kit: versus GSK126 and EPZ6438.
Procedure: Subsequently 5 μL of the assay antibody, H3K27me3-Eu(K)Ab (purchased from cisbio bioassays, USA, #61 KC3KAE) and 5 μL Streptavidin-XL665 (purchased from cisbio bioassays, USA, #610SAXLA), were added and incubated for 1 hour at room temperature.
The target in the next test is EZH2 (Homo sapiens (Human), UniProt Q15910). The test is described as follows: E-cadherin promoter luciferase reporter gene primary screening in 293T cells. Format: cell-based. Particulars: 293T cells treated for 24 hours, Dual-Glo luciferase; for 1 μM relative fluorescence intensity: compound 1 μM; for 10 μM relative fluorescence intensity: compound 10 μM. From the text: EZH2 suppresses the expression of downstream E-cadherin, and upon EZH2 suppression, expression of E-cadherin will increase. Based on such principle, a reporter gene expression vector was constructed using luciferase.
The amplified fragments after PCR and the PGL4.1 vector (purchased from TAKARA, Japan) were respectively subjected to enzyme digestion with SacI and BglII (purchased from TAKARA, Japan), and then purified with PCR cleanup kit (Axygen PCR cleanup kit). Subsequently, the purified and enzyme-digested PCR products was ligated to the purified and enzyme-digested PGL4.1 vector using ligase solution I (DNA Ligation Kit Ver.2.1, purchased from TAKARA, Japan), and subjected to transformation. Single clones were then screened out and subjected to sequencing, and the obtained positive plasmid containing promoter fragments of Ecadherin was named E-cadherin RE-PGL4.1.
Meanwhile, a Renilla fluorescent vector was constructed using PCDNA4.1 (purchased from Thermofisher, USA) as the template to amplify the fragment of CMV promoter. After enzymatic digestion of the amplified CMV sequences and pGL4.70 vector (purchased from Promega, USA) with KpnI and XhoI (purchased from Promega, USA), purification was conducted with PCR cleanup kit (Axygen PCR cleanup kit). Then the enzyme-digested PCR product was ligated to the enzyme-digested PGL4.70 vector using ligase solution I (DNA Ligation Kit Ver.2.1, purchased from TAKARA, Japan) and the resultant was subjected to transformation. Subsequently single clones were screened and subjected to sequencing, and the obtained plasmid that contained CMV sequence was named as Plasmid Renilla luciferase-pGL4.70. Said plasmid utilized CMV promoter to achieve high expression of Renilla luciferase, which served as the control fluorescence for the primary screening system.
The cells were firstly added with 20 μL Dual-Glo® Luciferase Assay Reagent, then incubated under room temperature for 10 minutes, and read on microplate reader Spectramax i3 (Molecular Devices, USA) to obtain the data of primary screening, which is shown in Table 1.

EZH2, sequence (Q15910 whole entry, the tested form may be a part): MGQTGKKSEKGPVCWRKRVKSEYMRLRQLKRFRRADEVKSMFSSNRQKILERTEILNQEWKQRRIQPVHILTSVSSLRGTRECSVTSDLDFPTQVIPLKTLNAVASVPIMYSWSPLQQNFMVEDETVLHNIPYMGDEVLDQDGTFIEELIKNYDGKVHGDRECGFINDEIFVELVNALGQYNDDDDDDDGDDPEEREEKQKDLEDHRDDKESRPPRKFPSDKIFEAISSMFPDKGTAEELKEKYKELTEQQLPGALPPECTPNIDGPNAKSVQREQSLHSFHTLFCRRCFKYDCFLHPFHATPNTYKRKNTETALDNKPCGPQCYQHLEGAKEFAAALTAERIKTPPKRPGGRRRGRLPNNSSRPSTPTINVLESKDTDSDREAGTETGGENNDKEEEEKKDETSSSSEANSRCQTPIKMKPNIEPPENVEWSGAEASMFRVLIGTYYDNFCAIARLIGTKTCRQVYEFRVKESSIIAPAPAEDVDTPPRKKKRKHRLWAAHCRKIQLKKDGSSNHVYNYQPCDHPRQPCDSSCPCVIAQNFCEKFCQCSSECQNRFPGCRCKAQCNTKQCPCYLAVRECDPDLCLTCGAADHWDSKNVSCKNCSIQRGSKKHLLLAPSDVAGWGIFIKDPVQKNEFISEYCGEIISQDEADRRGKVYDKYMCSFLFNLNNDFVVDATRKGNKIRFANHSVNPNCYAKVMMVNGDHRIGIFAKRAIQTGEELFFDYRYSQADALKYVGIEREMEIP
EZH2, sequence (O75530 whole entry partner, the tested form may be a part): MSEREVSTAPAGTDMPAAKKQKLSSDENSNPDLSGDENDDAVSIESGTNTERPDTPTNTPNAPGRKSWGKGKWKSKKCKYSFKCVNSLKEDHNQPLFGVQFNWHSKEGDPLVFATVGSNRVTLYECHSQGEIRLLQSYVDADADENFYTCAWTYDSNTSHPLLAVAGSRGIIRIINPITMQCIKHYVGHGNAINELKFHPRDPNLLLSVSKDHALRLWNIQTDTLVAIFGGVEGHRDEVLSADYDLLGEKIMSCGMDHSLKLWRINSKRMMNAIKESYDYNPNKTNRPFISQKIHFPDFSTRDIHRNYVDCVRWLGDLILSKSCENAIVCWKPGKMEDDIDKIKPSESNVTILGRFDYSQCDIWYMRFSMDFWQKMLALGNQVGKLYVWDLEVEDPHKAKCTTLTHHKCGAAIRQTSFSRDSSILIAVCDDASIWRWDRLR
EZH2, sequence (Q15022 whole entry partner, the tested form may be a part): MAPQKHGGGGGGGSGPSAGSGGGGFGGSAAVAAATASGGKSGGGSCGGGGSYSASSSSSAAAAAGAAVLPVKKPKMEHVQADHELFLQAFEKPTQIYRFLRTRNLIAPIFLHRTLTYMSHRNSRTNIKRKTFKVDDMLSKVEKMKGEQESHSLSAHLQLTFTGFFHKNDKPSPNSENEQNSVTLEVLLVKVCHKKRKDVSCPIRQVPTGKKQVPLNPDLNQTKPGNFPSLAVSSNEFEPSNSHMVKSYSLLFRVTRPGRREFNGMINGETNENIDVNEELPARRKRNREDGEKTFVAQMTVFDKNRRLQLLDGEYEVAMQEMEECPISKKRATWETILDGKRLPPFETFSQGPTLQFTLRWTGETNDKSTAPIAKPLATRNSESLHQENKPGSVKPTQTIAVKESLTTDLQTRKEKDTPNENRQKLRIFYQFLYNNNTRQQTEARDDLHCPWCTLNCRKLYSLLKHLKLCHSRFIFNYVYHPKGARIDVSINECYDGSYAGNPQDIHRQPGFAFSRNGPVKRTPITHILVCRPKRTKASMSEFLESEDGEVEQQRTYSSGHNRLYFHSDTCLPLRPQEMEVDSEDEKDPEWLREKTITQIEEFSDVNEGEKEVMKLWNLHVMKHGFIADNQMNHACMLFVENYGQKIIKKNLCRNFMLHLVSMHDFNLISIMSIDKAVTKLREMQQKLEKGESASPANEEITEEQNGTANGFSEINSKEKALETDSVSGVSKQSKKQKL
EZH2, sequence (Q09028 whole entry partner, the tested form may be a part): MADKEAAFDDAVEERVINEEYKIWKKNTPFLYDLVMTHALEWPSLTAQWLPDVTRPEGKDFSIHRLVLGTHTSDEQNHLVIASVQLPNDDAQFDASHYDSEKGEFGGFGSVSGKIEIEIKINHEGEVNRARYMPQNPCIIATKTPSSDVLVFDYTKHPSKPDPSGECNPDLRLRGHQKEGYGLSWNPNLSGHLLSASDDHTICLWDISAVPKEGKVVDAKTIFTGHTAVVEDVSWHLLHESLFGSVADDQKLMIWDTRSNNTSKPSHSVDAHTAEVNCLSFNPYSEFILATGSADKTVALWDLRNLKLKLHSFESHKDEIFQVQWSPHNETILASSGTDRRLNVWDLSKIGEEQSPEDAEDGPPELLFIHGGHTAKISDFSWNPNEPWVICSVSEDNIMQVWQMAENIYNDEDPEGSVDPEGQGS
PRC2 protein complex comprising EZH2(Y641F), sequence (Q15910 whole entry Y641F): as the sequence (Q15910 whole entry, the tested form may be a part) above, with Y641F counted along it
PRC2 protein complex comprising EZH2(Y641F), sequence (O75530 whole entry partner): as the sequence (O75530 whole entry partner, the tested form may be a part) above
PRC2 protein complex comprising EZH2(Y641F), sequence (Q15022 whole entry partner): as the sequence (Q15022 whole entry partner, the tested form may be a part) above
PRC2 protein complex comprising EZH2(Y641F), sequence (Q09028 whole entry partner): as the sequence (Q09028 whole entry partner, the tested form may be a part) above
PRC2 protein complex comprising EZH2(Y641F), sequence (Q6ZN18 whole entry partner): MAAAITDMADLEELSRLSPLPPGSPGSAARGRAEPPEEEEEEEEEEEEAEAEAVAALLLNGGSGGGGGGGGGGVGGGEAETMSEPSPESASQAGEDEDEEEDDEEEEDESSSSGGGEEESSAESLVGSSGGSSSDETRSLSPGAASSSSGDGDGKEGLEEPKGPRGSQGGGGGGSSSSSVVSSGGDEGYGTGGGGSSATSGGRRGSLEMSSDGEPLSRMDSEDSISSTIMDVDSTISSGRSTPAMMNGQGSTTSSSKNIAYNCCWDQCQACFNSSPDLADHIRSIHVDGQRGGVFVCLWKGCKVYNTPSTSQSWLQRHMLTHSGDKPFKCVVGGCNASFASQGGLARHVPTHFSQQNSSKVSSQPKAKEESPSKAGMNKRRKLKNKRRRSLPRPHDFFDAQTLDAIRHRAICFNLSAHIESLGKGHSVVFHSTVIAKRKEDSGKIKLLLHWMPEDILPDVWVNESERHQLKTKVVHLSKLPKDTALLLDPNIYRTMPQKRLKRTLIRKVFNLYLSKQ

In test [1] (Homo sapiens), `CCN(C(=O)C1CC1)c1cc(-c2ccc(CN3CCOCC3)cc2)cc(C(=O)NCc2c(C)cc(C)[nH]c2=O)c1C` [Compound 5, N-((4,6-dimethyl-2-oxo-1,2-dihydropyridin-3-yl)methyl)-5-(N-ethylcyclopropanecarboxamido)-4-methyl-4′-(morpholinomethyl)-[1,1′-diphenyl]-3-carboxamide] displayed a half-inhibitory concentration (IC50) of 0.086 µM.

On to `CCN(C(=O)C1CCCC1)c1cc(-c2ccc(CN3CCOCC3)cc2)cc(C(=O)NCc2c(C)cc(C)[nH]c2=O)c1C` [Compound 16, N-((4,6-dimethyl-2-oxo-1,2-dihydropyridin-3-yl)methyl)-5-(N-ethylcyclopentanecarboxamido)-4-methyl-4′-(morpholinomethyl)-[1,1′-diphenyl]-3-carboxamide], for which, in test [1] (Homo sapiens), the IC50 worked out at 0.126 µM.

The compound `CCN(C(=O)C1CCCC1)c1cc(-c2ccc(CN3CCN(C(=O)OC(C)(C)C)CC3)cc2)cc(C(=O)NCc2c(C)cc(C)[nH]c2=O)c1C` [Compound 24, tert-butyl-4-((3′-(((4,6-dimethyl-2-oxo-1,2-dihydropyridin-3-yl)methyl)carbamoyl)-5′-(N-ethylcyclopentanecarboxamido)-4′-methyl-[1,1′-diphenyl]-4-yl)methyl)piperazin-1-carboxylate] had an IC50 in test [1] (Homo sapiens) of 0.073 µM. Moreover, in test [2], the pIC50 was 7.09; the “activity compared with control compounds in the assay using a TR-FRET kit” value (from here on “activity compared with control compounds”) was “superior activity than control compounds GSK126 and EPZ6438”.

Take `CCN(C(=O)C1CCCC1)c1cc(-c2ccc(N3CCN(C(=O)OC(C)(C)C)CC3)nc2)cc(C(=O)NCc2c(C)cc(C)[nH]c2=O)c1C` [Compound 29, tertbutyl-4-(5-(3-(((4,6-dimethyl-2-oxo-1,2-dihydropyridin-3-yl)methyl)carbamoyl)-5-(N-ethylcyclopentanecarboxamido)-4-methylphenyl)pyridin-2-yl)piperazin-1-carboxylate]: on EZH2, the “1 μM relative fluorescence intensity” value is 176.86 and the “10 μM relative fluorescence intensity” value is reported as 364.77. In test [1] (Homo sapiens), the IC50 worked out at 2.6 µM.

Compound `CCN(C(=O)C1CCCC1)c1cc(-c2ccc(N3CCNCC3)cc2)cc(C(=O)NCc2c(C)cc(C)[nH]c2=O)c1C` [Compound 31, N-((4,6-dimethyl-2-oxo-1,2-dihydropyridin-3-yl)methyl)-5-(N-ethylcyclopentanecarboxamido)-4-methyl-4′-(piperazin-1-yl)-[1,1′-diphenyl]-3-carboxamide] had a 50% inhibitory concentration (IC50) in test [1] (Homo sapiens) of 0.087 µM. This compound also gave a pIC50 in test [2] of 6.35.

`CCN(C(=O)C1CCCC1)c1cc(-c2ccc(N3CCNCC3)nc2)cc(C(=O)NCc2c(C)cc(C)[nH]c2=O)c1C` [Compound 32, N-((4,6-dimethyl-2-oxo-1,2-dihydropyridin-3-yl)methyl)-3-(N-ethylcyclopentanecarboxamido)-2-methyl-5-(6-(piperazin-1-yl)pyridin-3-yl)-benzamide]: the IC50 in test [1] (Homo sapiens) turned out to be 0.95 µM.

In the case of `CCN(C(=O)C1CCCC1)c1cc(C#N)cc(C(=O)NCc2c(C)cc(C)[nH]c2=O)c1C` [Compound 33, 5-cyano-N-((4,6-dimethyl-2-oxo-1,2-dihydropyridin-3-yl)methyl)-3-(N-ethylcyclopentanecarboxamido)-2-methylbenzamide], at EZH2, the “1 μM relative fluorescence intensity” value turned out to be 123.27 and the “10 μM relative fluorescence intensity” value is 224.69. The half-inhibitory concentration (IC50) in test [1] (Homo sapiens) was 0.67 µM.

As for `CCN(C(=O)C1CCCC1)c1cc(-c2ccnc(N3CCN(CC4CC4)CC3)c2)cc(C(=O)NCc2c(C)cc(C)[nH]c2=O)c1C` [Compound 38, 5-(2-(4-(cyclopropylmethyl)piperazin-1-yl)pyridin-4-yl)-N-((4,6-dimethyl-2-oxo-1,2-dihydropyridin-3-yl)methyl)-3-(N-ethylcyclopentanecarboxamido)-2-methylbenzamide], the concentration for half-maximal inhibition (IC50) in test [1] (Homo sapiens) is 0.23 µM. The pIC50 in test [2] is 6.29.

In test [1] (Homo sapiens), `CCCc1cc(C)[nH]c(=O)c1CNC(=O)c1cc(-c2ccnc(N3CCN(CC4CC4)CC3)c2)cc(N(CC)C(=O)C2CCCC2)c1C` [Compound 39, 5-(2-(4-(cyclopropylmethyl)piperazin-1-yl)pyridin-4-yl)-3-(N-ethylcyclopentanecarboxamido)-2-methyl-N-((6-methyl-2-oxo-4-propyl-1,2-dihydropyridin-3-yl)methyl)benzamide] displayed an IC50 of 0.83 µM. In other words, the sub-micromolar range.

For `CCN(C(=O)C1CCCC1)c1cc(-c2ccc(OCCN3CCOCC3)cc2)cc(C(=O)NCc2c(C)cc(C)[nH]c2=O)c1C` [Compound 40, N-((4,6-dimethyl-2-oxo-1,2-dihydropyridin-3-yl)methyl)-5-(N-ethylcyclopentanecarboxamido)-4-methyl-4′-(2-morpholinoethoxyl)-[1,1′-diphenyl]-3-carboxamide], in test [1] (Homo sapiens), the IC50 worked out at 0.24 µM. In test [2], the pIC50 was 6.66.

For the compound `CCN(C(=O)C1CCCC1)c1cc(-c2ccc(OCCCN3CCOCC3)cc2F)cc(C(=O)NCc2c(C)cc(C)[nH]c2=O)c1C` [Compound 44, N-((4,6-dimethyl-2-oxo-1,2-dihydropyridin-3-yl)methyl)-5-(N-ethylcyclopentanecarboxamido)-2′-fluoro-4-methyl-4′-(3-morpholinopropoxy)-[1,1′-diphenyl]-3-carboxamide], on EZH2, the “1 μM relative fluorescence intensity” value is on record as 181.04 and the “10 μM relative fluorescence intensity” value worked out at 217.02.

As for `CCN(C(=O)C1CCCC1)c1cc(-c2ccc(OCCCN3CCOCC3)cc2C)cc(C(=O)NCc2c(C)cc(C)[nH]c2=O)c1C` [Compound 45, N-((4,6-dimethyl-2-oxo-1,2-dihydropyridin-3-yl)methyl)-5-(N-ethylcyclopentanecarboxamido)-2′,4-methyl-4′-(3-morpholinopropoxy)-[1,1′-diphenyl]-3-carboxamide], on EZH2, the “1 μM relative fluorescence intensity” value is 189.05 and the “10 μM relative fluorescence intensity” value is listed as 218.76.

Consider `CCN(C(=O)C1CC2C=CC1C2)c1cc(-c2ccc(CN3CCOCC3)cc2)cc(C(=O)NCc2c(C)cc(C)[nH]c2=O)c1C` [Compound 60, (1R,4R)—N-(5-(((4,6-dimethyl-2-oxo-1,2-dihydropyridin-3-yl)methyl)carbamoyl-4-methyl-4′-(morpholinomethyl)-[1,1′-diphenyl]-3-yl)-N-ethylbicyclo[2.2.1]hept-5-en-2-carboxamide], for which, at EZH2, the “1 μM relative fluorescence intensity” value is 143 and the “10 μM relative fluorescence intensity” value was 171. Also, the “3 μM relative fluorescence intensity” value on EZH2 (compound 3 μM) was 140.

`CCN(C(=O)C1CCCC1)c1cc(-c2ccc(OCCN3CCOCC3)cc2C)cc(C(=O)NCc2c(C)cc(C)[nH]c2=O)c1C` [Compound 63, N-((4,6-dimethyl-2-oxo-1,2-dihydropyridin-3-yl)methyl)-5-(N-ethylcyclopentanecarboxamido)-2′,4-dimethyl-4′-(2-morpholinoethoxyl)-[1,1′-diphenyl]-3-carboxamide]: the half-inhibitory concentration (IC50) in test [1] (Homo sapiens) is 0.43 µM. Moreover, in test [2], the pIC50 is 6.99; the “activity compared with control compounds” value is “superior activity than control compounds GSK126 and EPZ6438”.

With `CCN(C(=O)C1CC1)c1cc(-c2ccc(OCCCN3CCOCC3)cc2C)cc(C(=O)NCc2c(C)cc(C)[nH]c2=O)c1C` [Compound 64, N-((4,6-dimethyl-2-oxo-1,2-dihydropyridin-3-yl)methyl)-5-(N-ethylcyclopropanecarboxamido)-2′,4-dimethyl-4′-(3-morpholinopropoxy)-[1,1′-diphenyl]-3-carboxamide], the IC50 in test [1] (Homo sapiens) amounted to 0.03 µM. In test [1], the “effect compared with control compounds in Western Blot verification on cells” value is “superior effects than control compounds EPZ6438 and GSK126”. In test [2], the pIC50 was 6.99; the “activity compared with control compounds” value is “superior activity than control compounds GSK126 and EPZ6438”.

In turn, `CCN(C(=O)C1CC1)c1cc(-c2ccc(OCCCN3CCOCC3)c(F)c2)cc(C(=O)NCc2c(C)cc(C)[nH]c2=O)c1C` [Compound 65, N-((4,6-dimethyl-2-oxo-1,2-dihydropyridin-3-yl)methyl)-5-(N-ethylcyclopropanecarboxamido)-3′-fluoro-4-methyl-4′-(3-morpholinopropoxy)-[1,1′-diphenyl]-3-carboxamide] came in with a half-inhibitory concentration (IC50) in test [1] (Homo sapiens) of 0.024 µM. In test [1], the “effect compared with control compounds in Western Blot verification on cells” value was “superior effects than control compounds EPZ6438 and GSK126”. Also, in test [2], the pIC50 was 7.54; the “activity compared with control compounds” value was “superior activity than control compounds GSK126 and EPZ6438”.

As for `CC[C@H](C)n1cc(C)c2c(C(=O)NCc3c(C)cc(C)[nH]c3=O)cc(-c3ccc(N4CCNCC4)nc3)cc21` [GSK126, reference compound], half-maximal inhibition in test [1] (IC50) required 1.4 µM.
